Source: ChEMBL document CHEMBL3885881, “DrugMatrix”

Species: Rattus norvegicus
Experiment: DrugMatrix - Regimen: Daily Repeat
Type: toxicity, organism-based, Sprague-Dawley
Design: regimen Daily Repeat, gender Male, age 6-8 weeks
Conditions: in vivo, po, route oral GAVAGE, […]; for ABSOLUTE BASOPHIL / ABSOLUTE EOSINOPHIL / ABSOLUTE LYMPHOCYTE / ABSOLUTE MONOCYTE / ABSOLUTE SEGMENTED NEUTROPHIL / BASOPHIL / EOSINOPHIL / ERYTHROCYTE COUNT / HEMATOCRIT / HEMOGLOBIN / LEUKOCYTE COUNT / LYMPHOCYTE / MEAN CORPUSCULAR HEMOGLOBIN / MEAN CORPUSCULAR HEMOGLOBIN CONCENTRATION / MEAN CORPUSCULAR VOLUME / MONOCYTE / NEUTROPHIL / NUCLEATED RED BLOOD CELLS / PLATELET COUNT: tissue Blood; for ALANINE AMINOTRANSFERASE / ALBUMIN / ALKALINE PHOSPHATASE / ASPARTATE AMINOTRANSFERASE / BLOOD UREA NITROGEN / CARBON DIOXIDE / CHLORIDE / CHOLESTEROL / CREATINE PHOSPHOKINASE / CREATININE / GLUCOSE / LACTATE DEHYDROGENASE / LIPASE / POTASSIUM / SODIUM / TOTAL BILIRUBIN / TOTAL PROTEIN / URIC ACID: tissue Plasma
[1] = 0 mg/kg, 72 h, dose level Control, time 3 day
[2] = 0 mg/kg, 120 h, dose level Control, time 5 day
[3] = 3 mg/kg, 72 h, dose level Low, time 3 day
[4] = 3 mg/kg, 120 h, dose level Low, time 5 day

## CCc1ccc(CCOc2ccc(CC3SC(=O)NC3=O)cc2)nc1 (configuration not stated) [PIOGLITAZONE]
[1]
  ABSOLUTE BASOPHIL: 0 CELLS/uL
  ABSOLUTE EOSINOPHIL: 22.83 CELLS/uL
  ABSOLUTE LYMPHOCYTE: 11213.33 CELLS/uL
  ABSOLUTE MONOCYTE: 169.83 CELLS/uL
  ABSOLUTE SEGMENTED NEUTROPHIL: 960.67 CELLS/uL
  BASOPHIL: 0%
  EOSINOPHIL: 0.17%
  ERYTHROCYTE COUNT: 5.34 x10E6/uL
  HEMATOCRIT: 33.62%
  HEMOGLOBIN: 13.17 G/DL
  LEUKOCYTE COUNT: 12.37 x10E3/uL
  LYMPHOCYTE: 90.33%
  MEAN CORPUSCULAR HEMOGLOBIN: 24.65 pg
  MEAN CORPUSCULAR HEMOGLOBIN CONCENTRATION: 39.18 G/DL
  MEAN CORPUSCULAR VOLUME: 62.95 fL
  MONOCYTE: 1.5%
  NEUTROPHIL: 8%
  NUCLEATED RED BLOOD CELLS: 0 /100WBC
  ALANINE AMINOTRANSFERASE: 56.67 u/L
  ALBUMIN: 4.55 G/DL
  ALKALINE PHOSPHATASE: 305.17 u/L
  ASPARTATE AMINOTRANSFERASE: 96.5 u/L
  BLOOD UREA NITROGEN: 13.5 mg/dL
  CARBON DIOXIDE: 31 mmol/L
  CHLORIDE: 101.67 MEQ/L
  CHOLESTEROL: 75.83 mg/dL
  CREATINE PHOSPHOKINASE: 345.67 u/L
  CREATININE: 0.28 mg/dL
  GLUCOSE: 142.5 mg/dL
  LACTATE DEHYDROGENASE: 136.67 u/L
  LIPASE: 10.17 u/L
  POTASSIUM: 5.41 MEQ/L
  SODIUM: 146.7 MEQ/L
  TOTAL BILIRUBIN: 0.13 mg/dL
  TOTAL PROTEIN: 6.65 G/DL
  URIC ACID: 0.77 mg/dL
[2]
  ABSOLUTE BASOPHIL: 0 CELLS/uL
  ABSOLUTE EOSINOPHIL: 26.33 CELLS/uL
  ABSOLUTE LYMPHOCYTE: 10004.33 CELLS/uL
  ABSOLUTE MONOCYTE: 141.33 CELLS/uL
  ABSOLUTE SEGMENTED NEUTROPHIL: 1161.33 CELLS/uL
  BASOPHIL: 0%
  EOSINOPHIL: 0.33%
  ERYTHROCYTE COUNT: 5.5 x10E6/uL
  HEMATOCRIT: 34.8%
  HEMOGLOBIN: 13.17 G/DL
  LEUKOCYTE COUNT: 11.33 x10E3/uL
  LYMPHOCYTE: 87.83%
  MEAN CORPUSCULAR HEMOGLOBIN: 23.95 pg
  MEAN CORPUSCULAR HEMOGLOBIN CONCENTRATION: 37.83 G/DL
  MEAN CORPUSCULAR VOLUME: 63.28 fL
  MONOCYTE: 1.17%
  NEUTROPHIL: 10.67%
  NUCLEATED RED BLOOD CELLS: 0 /100WBC
  PLATELET COUNT: 1035.33 x10E3/uL
  ALANINE AMINOTRANSFERASE: 36 u/L
  ALBUMIN: 4.63 G/DL
  ALKALINE PHOSPHATASE: 266.33 u/L
  ASPARTATE AMINOTRANSFERASE: 71.67 u/L
  BLOOD UREA NITROGEN: 11.33 mg/dL
  CARBON DIOXIDE: 30.17 mmol/L
  CHLORIDE: 100.83 MEQ/L
  CHOLESTEROL: 70.33 mg/dL
  CREATINE PHOSPHOKINASE: 226.17 u/L
  CREATININE: 0.27 mg/dL
  GLUCOSE: 147.83 mg/dL
  LACTATE DEHYDROGENASE: 111.67 u/L
  LIPASE: 8 u/L
  POTASSIUM: 5.14 MEQ/L
  SODIUM: 145.48 MEQ/L
  TOTAL BILIRUBIN: 0.1 mg/dL
  TOTAL PROTEIN: 6.53 G/DL
  URIC ACID: 0.52 mg/dL
[3]
  ABSOLUTE BASOPHIL: 0 CELLS/uL
  ABSOLUTE EOSINOPHIL: 196.67 CELLS/uL
  ABSOLUTE LYMPHOCYTE: 13366 CELLS/uL
  ABSOLUTE MONOCYTE: 155.33 CELLS/uL
  ABSOLUTE SEGMENTED NEUTROPHIL: 1182 CELLS/uL
  BASOPHIL: 0%
  EOSINOPHIL: 1.33%
  ERYTHROCYTE COUNT: 5.51 x10E6/uL
  HEMATOCRIT: 35.97%
  HEMOGLOBIN: 13.93 G/DL
  LEUKOCYTE COUNT: 14.9 x10E3/uL
  LYMPHOCYTE: 89.67%
  MEAN CORPUSCULAR HEMOGLOBIN: 25.3 pg
  MEAN CORPUSCULAR HEMOGLOBIN CONCENTRATION: 38.77 G/DL
  MEAN CORPUSCULAR VOLUME: 65.23 fL
  MONOCYTE: 1%
  NEUTROPHIL: 8%
  NUCLEATED RED BLOOD CELLS: 0 /100WBC
  PLATELET COUNT: 1174 x10E3/uL
  ALANINE AMINOTRANSFERASE: 60.33 u/L
  ALBUMIN: 4.03 G/DL
  ALKALINE PHOSPHATASE: 427.33 u/L
  ASPARTATE AMINOTRANSFERASE: 94.33 u/L
  BLOOD UREA NITROGEN: 8.67 mg/dL
  CARBON DIOXIDE: 32.67 mmol/L
  CHLORIDE: 103.67 MEQ/L
  CHOLESTEROL: 64.67 mg/dL
  CREATINE PHOSPHOKINASE: 625.67 u/L
  CREATININE: 0.22 mg/dL
  GLUCOSE: 155.67 mg/dL
  LACTATE DEHYDROGENASE: 125.67 u/L
  LIPASE: 12.33 u/L
  POTASSIUM: 6.21 MEQ/L
  SODIUM: 145.77 MEQ/L
  TOTAL BILIRUBIN: 0.13 mg/dL
  TOTAL PROTEIN: 5.33 G/DL
  URIC ACID: 1.63 mg/dL
[4]
  ABSOLUTE BASOPHIL: 0 CELLS/uL
  ABSOLUTE EOSINOPHIL: 37 CELLS/uL
  ABSOLUTE LYMPHOCYTE: 11883.67 CELLS/uL
  ABSOLUTE MONOCYTE: 95.33 CELLS/uL
  ABSOLUTE SEGMENTED NEUTROPHIL: 1150.67 CELLS/uL
  BASOPHIL: 0%
  EOSINOPHIL: 0.33%
  ERYTHROCYTE COUNT: 5.61 x10E6/uL
  HEMATOCRIT: 36.33%
  HEMOGLOBIN: 14.47 G/DL
  LEUKOCYTE COUNT: 13.17 x10E3/uL
  LYMPHOCYTE: 90.33%
  MEAN CORPUSCULAR HEMOGLOBIN: 25.8 pg
  MEAN CORPUSCULAR HEMOGLOBIN CONCENTRATION: 39.83 G/DL
  MEAN CORPUSCULAR VOLUME: 64.8 fL
  MONOCYTE: 0.67%
  NEUTROPHIL: 8.67%
  NUCLEATED RED BLOOD CELLS: 0 /100WBC
  PLATELET COUNT: 1242.33 x10E3/uL
  ALANINE AMINOTRANSFERASE: 58.33 u/L
  ALBUMIN: 4.03 G/DL
  ALKALINE PHOSPHATASE: 346.67 u/L
  ASPARTATE AMINOTRANSFERASE: 87.67 u/L
  BLOOD UREA NITROGEN: 13 mg/dL
  CARBON DIOXIDE: 30.67 mmol/L
  CHLORIDE: 101 MEQ/L
  CHOLESTEROL: 64.67 mg/dL
  CREATINE PHOSPHOKINASE: 464 u/L
  CREATININE: 0.13 mg/dL
  GLUCOSE: 150.33 mg/dL
  LACTATE DEHYDROGENASE: 542.33 u/L
  LIPASE: 11.33 u/L
  POTASSIUM: 6.64 MEQ/L
  SODIUM: 142.57 MEQ/L
  TOTAL BILIRUBIN: 0.2 mg/dL
  TOTAL PROTEIN: 5.7 G/DL
  URIC ACID: 1.57 mg/dL
